According to ChEMBL document CHEMBL4680246, “Design, synthesis and biological evaluation of novel O-carbamoyl ferulamide derivatives as multi-target-directed ligands for the treatment of Alzheimer's disease” (Eur J Med Chem, 2020):
Activity calls are given as the source filed them. The calls are words filed in the database; no cut-off is given here.

Legend:
[1] = target: Amyloid-beta precursor protein (Homo sapiens) (UniProt P05067); test: Disaggregation of self-induced amyloid beta (1 to 42) (unknown origin) preformed fibrils at 25 uM measured after 24 hrs by thioflavin-T fluorescence assay relative to control
[2] = target: Amyloid-beta precursor protein (Homo sapiens) (UniProt P05067); test: Disaggregation of self-induced amyloid beta (1 to 42) (unknown origin) preformed fibrils at 25 uM measured after 24 hrs by transmission electron microscopic analysis
[3] = Toxicity in AlCl3-induced Zebrafish model of Alzheimer's disease assessed as mortality at 25 ug/ml relative to control; parameters: species or system Danio rerio; conditions: in vivo, at 25 µg/mL
[4] = Toxicity in AlCl3-induced Zebrafish model of Alzheimer's disease assessed as mortality at 100 ug/ml relative to control; parameters: species or system Danio rerio; conditions: in vivo, at 100 µg/mL
[5] = Cytotoxicity against mouse HT22 cells assessed as cell viability at 80 uM by MTT assay relative to control; assay type: cell-based, HT-22; conditions: read-out: Activity
Cholinesterase [6] = target: T1, Cholinesterase (Homo sapiens, UniProt P06276); test: Pseudo-irreversible inhibition of human serum BuChE assessed as residual activity at 0.1 times IC50 using acetylcholine iodide as substrate measured 240 mins post dilution by Ellman's method relative to control
[7] = Toxicity in AlCl3-induced Zebrafish model of Alzheimer's disease assessed as mortality at 200 ug/ml relative to control; parameters: species or system Danio rerio; conditions: in vivo, at 200 µg/mL
Danio rerio [8] = organism: Danio rerio; test: Protection against amyloid beta (1 to 42)-induced zebrafish model of vascular injury assessed as reduction in vascular injury at 0.33 ug/ml relative to control; assay type: functional; conditions: dose 0.33 µg/ml
[9] = Cytotoxicity against mouse HT22 cells assessed as cell viability at 20 uM by MTT assay relative to control; assay type: cell-based, HT-22; conditions: read-out: Activity
[10] = Toxicity in AlCl3-induced Zebrafish model of Alzheimer's disease assessed as mortality at 50 ug/ml relative to control; parameters: species or system Danio rerio; conditions: in vivo, at 50 µg/mL
[11] = Effect on tau protein level in mouse HT22 cells transfected with pRK5-GFP-Tau plasmid assessed as fluorescence intensity at 2.5 uM by fluorescence microscopy (Rvb <= 40.9); assay type: functional, HT-22
SH-SY5Y = test: Cytotoxicity against human SH-SY5Y cells up to 50 uM by MTT assay; assay type: cell-based
[12] = Toxicity in Zebrafish assessed as mortality at 100 ug/ml relative to control; parameters: species or system Danio rerio; conditions: in vivo, at 100 µg/mL
[13] = Toxicity in Zebrafish assessed as mortality at 6.25 ug/ml relative to control; parameters: species or system Danio rerio; conditions: in vivo, at 6.25 µg/mL
Cholinesterase [14] = target: T1, Cholinesterase; test: Inhibition of human serum BuChE using acetylcholine iodide as substrate incubated for 15 mins by Ellman's method
[15] = Effect on APP protein level in mouse HT22 cells transfected with pEGFP-N1-APP plasmid assessed as fluorescence intensity at 20 uM by fluorescence microscopy (reference value: 33.2); assay type: functional, HT-22
[16] = Toxicity in Zebrafish assessed as small or misshapen jaw at 6.25 ug/ml relative to control; parameters: species or system Danio rerio; conditions: in vivo, at 6.25 µg/mL
[17] = Toxicity in AlCl3-induced Zebrafish model of Alzheimer's disease assessed as mortality at 1 ug/ml relative to control; parameters: species or system Danio rerio; conditions: in vivo, at 1 µg/mL
Mus musculus = test: Improvement in brain cholinergic activity in scopolamine-induced mouse model of amnesia assessed as reduction in AChE vitality at 5 to 10 mg/kg; assay type: functional, organism-based; conditions: dose 5-10 mg/kg
[18] = Cytotoxicity against human LO2 cells assessed as cell viability at 50 uM by MTT assay relative to control; assay type: cell-based, L02; conditions: read-out: Activity
[19] = Selectivity index, ratio of IC50 for Electrophorus electricus AChE to IC50 for equine serum BuChE
[20] = Effect on tau protein level in mouse HT22 cells transfected with pRK5-GFP-Tau P301L plasmid assessed as fluorescence intensity at 2.5 uM by fluorescence microscopy (reference value: 33.6); assay type: functional, HT-22
Homo sapiens = organism: Homo sapiens; test: Selectivity index, ratio of IC50 for human erythrocytes Ache to IC50 for human serum BuChe
[21] = Toxicity in AlCl3-induced Zebrafish model of Alzheimer's disease; parameters: species or system Danio rerio; conditions: in vivo
HT-22 = test: Effect on tau protein level in mouse HT22 cells transfected with pRK5-GFP-Tau P301L plasmid assessed as reduction in fluorescence intensity by fluorescence microscopy; assay type: functional, cell-based
[22] = Drug metabolism in rat intestinal flora by HPLC analysis; assay type: ADME, tissue-based, Intestine
[23] = target: T2, Amine oxidase [flavin-containing] B (Homo sapiens, UniProt P27338); test: Inhibition of recombinant human MAO-B
T2 sequence (P27338 whole entry): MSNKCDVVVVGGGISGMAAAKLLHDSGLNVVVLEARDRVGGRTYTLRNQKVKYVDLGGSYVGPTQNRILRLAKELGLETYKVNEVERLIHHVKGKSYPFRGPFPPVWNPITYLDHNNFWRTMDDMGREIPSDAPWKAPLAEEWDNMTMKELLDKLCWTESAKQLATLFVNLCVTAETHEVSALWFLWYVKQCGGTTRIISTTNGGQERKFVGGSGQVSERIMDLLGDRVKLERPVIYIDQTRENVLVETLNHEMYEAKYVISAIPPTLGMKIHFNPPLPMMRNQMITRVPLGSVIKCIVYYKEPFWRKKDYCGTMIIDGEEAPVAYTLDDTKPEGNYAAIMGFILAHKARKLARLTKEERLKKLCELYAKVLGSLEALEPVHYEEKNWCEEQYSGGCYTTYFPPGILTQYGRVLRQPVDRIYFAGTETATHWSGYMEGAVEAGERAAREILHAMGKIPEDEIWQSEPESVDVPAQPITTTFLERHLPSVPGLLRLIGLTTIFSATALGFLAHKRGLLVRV

[24] = Toxicity in AlCl3-induced Zebrafish model of Alzheimer's disease assessed as mortality at 5 ug/ml relative to control; parameters: species or system Danio rerio; conditions: in vivo, at 5 µg/mL
Danio rerio [25] = organism: Danio rerio; test: Protection against amyloid beta (1 to 42)-induced zebrafish model of vascular injury assessed as reduction in vascular injury at […] relative to control; assay type: functional; conditions: dose 0.11 µg/ml
L02 = test: Cytotoxicity against human LO2 cells assessed as reduction in cell viability at 25 uM by MTT assay; assay type: cell-based; conditions: l02, 25 µM
[26] = Toxicity in Zebrafish assessed as pericardial edema at 6.25 ug/ml relative to control; parameters: species or system Danio rerio; conditions: in vivo, at 6.25 µg/mL
Danio rerio [27] = organism: Danio rerio; test: Protection against amyloid beta (1 to 42)-induced zebrafish model of vascular injury assessed as vascular injury rate at 0.33 ug/ml (reference value: 73.3%); assay type: functional; conditions: dose 0.33 µg/ml
Acetylcholinesterase [28] = target: Acetylcholinesterase (Electrophorus electricus, UniProt O42275); test: Inhibition of Electrophorus electricus AChE using acetylcholine iodide as substrate incubated for 15 mins by Ellman's method
Acetylcholinesterase [29] = target: Acetylcholinesterase (Homo sapiens, UniProt P22303); test: Inhibition of human erythrocytes AChE using acetylcholine iodide as substrate incubated for 15 mins by Ellman's method
Danio rerio [30] = organism: Danio rerio; test: Protection against amyloid beta (1 to 42)-induced zebrafish model of vascular injury assessed as reduction in injury rate; assay type: functional, organism-based

T1 sequence (P06276 whole entry): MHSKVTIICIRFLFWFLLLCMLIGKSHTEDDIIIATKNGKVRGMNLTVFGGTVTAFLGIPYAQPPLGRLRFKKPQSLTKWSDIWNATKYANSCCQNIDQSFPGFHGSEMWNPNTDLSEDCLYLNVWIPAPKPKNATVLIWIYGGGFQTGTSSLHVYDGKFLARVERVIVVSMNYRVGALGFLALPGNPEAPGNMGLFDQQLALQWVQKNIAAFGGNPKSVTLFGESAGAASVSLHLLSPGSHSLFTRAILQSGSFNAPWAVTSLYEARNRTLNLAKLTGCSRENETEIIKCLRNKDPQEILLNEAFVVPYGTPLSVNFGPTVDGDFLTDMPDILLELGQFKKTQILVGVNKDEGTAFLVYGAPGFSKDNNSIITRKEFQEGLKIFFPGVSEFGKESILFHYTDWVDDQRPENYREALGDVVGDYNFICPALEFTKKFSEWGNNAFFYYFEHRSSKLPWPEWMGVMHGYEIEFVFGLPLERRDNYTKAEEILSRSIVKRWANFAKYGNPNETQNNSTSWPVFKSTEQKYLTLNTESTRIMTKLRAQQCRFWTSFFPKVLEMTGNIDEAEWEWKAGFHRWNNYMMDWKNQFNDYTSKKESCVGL
Chain of Amyloid-beta precursor protein (Homo sapiens) (P05067 whole entry): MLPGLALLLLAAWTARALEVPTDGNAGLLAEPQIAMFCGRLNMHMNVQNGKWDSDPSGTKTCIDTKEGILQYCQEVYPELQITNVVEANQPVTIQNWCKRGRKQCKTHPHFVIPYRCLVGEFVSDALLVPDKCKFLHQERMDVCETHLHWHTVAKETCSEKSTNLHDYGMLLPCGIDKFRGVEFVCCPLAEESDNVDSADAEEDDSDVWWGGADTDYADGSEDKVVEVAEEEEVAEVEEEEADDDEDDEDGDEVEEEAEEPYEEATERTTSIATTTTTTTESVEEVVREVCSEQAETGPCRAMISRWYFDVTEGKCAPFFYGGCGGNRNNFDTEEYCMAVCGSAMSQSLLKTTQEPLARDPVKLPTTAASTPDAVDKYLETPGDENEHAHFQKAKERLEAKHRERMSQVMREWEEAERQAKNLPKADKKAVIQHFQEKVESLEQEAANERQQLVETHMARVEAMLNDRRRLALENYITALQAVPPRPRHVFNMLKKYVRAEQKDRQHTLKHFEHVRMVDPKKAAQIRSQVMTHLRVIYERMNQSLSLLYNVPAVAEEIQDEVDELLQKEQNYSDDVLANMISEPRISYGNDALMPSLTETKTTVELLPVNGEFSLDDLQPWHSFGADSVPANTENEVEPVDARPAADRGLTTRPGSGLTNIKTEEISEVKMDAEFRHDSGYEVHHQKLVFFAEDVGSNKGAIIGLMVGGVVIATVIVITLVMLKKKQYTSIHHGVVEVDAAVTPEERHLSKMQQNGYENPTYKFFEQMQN
Chain of Acetylcholinesterase (Electrophorus electricus, UniProt O42275) (O42275 whole entry): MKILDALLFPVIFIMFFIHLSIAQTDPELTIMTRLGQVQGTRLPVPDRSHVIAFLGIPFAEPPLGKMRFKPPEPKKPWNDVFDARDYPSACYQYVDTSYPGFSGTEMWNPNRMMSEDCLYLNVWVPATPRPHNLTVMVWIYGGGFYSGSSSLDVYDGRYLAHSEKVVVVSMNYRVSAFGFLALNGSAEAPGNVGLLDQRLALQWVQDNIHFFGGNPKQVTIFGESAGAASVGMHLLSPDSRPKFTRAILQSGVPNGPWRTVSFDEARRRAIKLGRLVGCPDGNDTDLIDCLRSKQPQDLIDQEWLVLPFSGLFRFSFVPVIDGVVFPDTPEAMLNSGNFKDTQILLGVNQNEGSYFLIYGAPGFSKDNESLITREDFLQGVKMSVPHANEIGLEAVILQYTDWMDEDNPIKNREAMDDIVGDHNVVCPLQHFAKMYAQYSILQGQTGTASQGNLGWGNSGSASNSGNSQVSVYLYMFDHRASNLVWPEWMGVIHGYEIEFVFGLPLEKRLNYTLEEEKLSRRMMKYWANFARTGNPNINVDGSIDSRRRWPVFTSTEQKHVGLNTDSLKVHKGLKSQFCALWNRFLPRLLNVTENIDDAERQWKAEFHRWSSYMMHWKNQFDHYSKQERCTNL
Chain of Acetylcholinesterase (Homo sapiens, UniProt P22303) (P22303 whole entry): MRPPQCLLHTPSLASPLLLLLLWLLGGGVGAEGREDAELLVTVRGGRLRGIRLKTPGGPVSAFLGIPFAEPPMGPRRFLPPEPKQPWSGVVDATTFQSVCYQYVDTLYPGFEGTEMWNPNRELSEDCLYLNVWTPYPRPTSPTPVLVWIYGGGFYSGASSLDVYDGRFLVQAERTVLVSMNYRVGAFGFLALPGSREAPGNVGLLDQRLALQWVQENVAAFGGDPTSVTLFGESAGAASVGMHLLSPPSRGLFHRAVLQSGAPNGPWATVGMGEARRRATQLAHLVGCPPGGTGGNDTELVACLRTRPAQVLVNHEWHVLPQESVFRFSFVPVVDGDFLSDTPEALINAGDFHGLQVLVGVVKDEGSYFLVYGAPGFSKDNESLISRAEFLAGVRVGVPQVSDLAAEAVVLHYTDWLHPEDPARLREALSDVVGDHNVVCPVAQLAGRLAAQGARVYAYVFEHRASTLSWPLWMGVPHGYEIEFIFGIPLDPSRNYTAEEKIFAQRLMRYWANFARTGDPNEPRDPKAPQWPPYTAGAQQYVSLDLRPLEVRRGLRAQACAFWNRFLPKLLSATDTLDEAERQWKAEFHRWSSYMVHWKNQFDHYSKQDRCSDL

CCN(C)C(=O)Oc1ccc(/C=C/C(=O)N2CCc3ccccc3C2)cc1OC
Activity [1]: 43.3%
Activity [2]: Active
mortality at 25 ug/ml [3]: 100%
mortality at 100 ug/ml [4]: 100%
viability at 80 µM [5]: 8.4%
Activity (Cholinesterase [6]): 66.2%
mortality at 200 ug/ml [7]: 100%
Efficacy (Danio rerio [8]): 9%
viability at 20 µM [9]: 79.8%
mortality at 50 ug/ml [10]: 100%
Flu intensity [11]: 32.6
Activity (SH-SY5Y): Non-Toxic
mortality at 100 ug/ml [12]: 100%
mortality at 6.25 ug/ml [13]: 6.7%
IC50 (Cholinesterase [14]): 0.97 µM
Flu intensity [15]: 14.9
Activity [16]: 33.3%
mortality at 1 ug/ml [17]: 0%
Activity (Mus musculus): Active
viability at 50 µM [18]: 46.9%
Ratio IC50 [19]: 12.3
Flu intensity [20]: 30.3
Ratio IC50 (Homo sapiens): 10.9
MTD [21]: 1 µg/mL
Activity (HT-22): Dose-dependent effect
Drug metabolism [22]: Metabolite_Detected
IC50 [23]: 5.3 µM
mortality at 5 ug/ml [24]: 0%
Efficacy (Danio rerio [25]): -9.1%
Activity (L02): Non-Toxic
Activity [26]: 46.7%
Activity (Danio rerio [27]): 66.7%
IC50 (Acetylcholinesterase [28]): 11.3 µM
IC50 (Acetylcholinesterase [29]): 10.6 µM
Activity (Danio rerio [30]): Dose-dependent effect
